Earlier results on 1 compound are cited in US12343354B2, “Injection containing p-boronophenylalanine” (Stella Pharma Corporation, priority 2019, dated 2025).

Molecules are shown by their SMILES.

For this data set the following is noted: physiological pH.

Consider `N[C@@H](Cc1ccc(B(O)O)cc1)C(=O)O` [p-Boronophenylalanine, p-boronophenylalanine], for which the solubility result was “very poor solubility”.
